PubChem BioAssay AID504680 (Sanford-Burnham Center for Chemical Genomics, 2011)
Calls of active or inactive are those of the source.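 How the source made its calls: active means IC50 below 100 µM in the TR-FRET assay, unless also active in the caspase-3 counter assay; inactive means the rest, including compounds also active in caspase-3.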

Molecular target: Caspase-3 (Homo sapiens) (UniProt P42574)
Experiment: caspase-3 inhibitors as false-positive filter, SAR follow-up, counter-screen for UBC13 polyubiquitin inhibitor project, biochemical, luminescence, Caspase-Glo 3/7 (AID 504680)
Details: recombinant caspase-3, Caspase-Glo luminescence, 60 min

Caspase-3 (Homo sapiens), sequence (P42574 whole entry, looked up): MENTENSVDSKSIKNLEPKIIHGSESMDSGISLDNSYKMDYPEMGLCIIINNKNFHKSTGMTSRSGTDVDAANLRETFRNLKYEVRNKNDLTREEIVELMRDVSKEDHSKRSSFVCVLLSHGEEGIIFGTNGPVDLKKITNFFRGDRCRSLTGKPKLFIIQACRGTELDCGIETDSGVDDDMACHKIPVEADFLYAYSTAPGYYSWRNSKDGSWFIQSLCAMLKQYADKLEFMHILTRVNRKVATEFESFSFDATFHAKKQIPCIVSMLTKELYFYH

Row | Structure (SMILES) | IC50
1 | CC(=O)Nc1ccc(OCC(O)CN2CCN(CCN3C(=O)c4cccc5cccc(c45)C3=O)CC2)cc1 (configuration not stated) | > 100 µM (inactive)
2 | CCc1ccc(OCC(O)CN2CCC(CN3C(=O)c4cccc5cccc(c45)C3=O)CC2)cc1 (configuration not stated) | > 100 µM (inactive)
3 | O=C(C1CCN(c2ncnc3c2nc2n3CCCCC2)CC1)N1CCOCC1 | > 100 µM (inactive)
4 | O=C(CCCCCN1C(=O)c2ccccc2C1=O)NCc1ccccc1 | > 100 µM (inactive)
5 | O=C(CCCCCN1C(=O)c2cccc([N+](=O)[O-])c2C1=O)NCc1ccccc1 | > 100 µM (inactive)
6 | Cc1ccc2nc(N(CCCN(C)C)C(=O)c3ccc4c(c3)CCCC4)sc2c1 | > 100 µM (inactive)
7 | COc1ccc(C(=O)Nn2c(C)nc3ccccc3c2=O)cc1 | > 100 µM (inactive)
8 | CN(C)CCCn1c(SCC(=O)Nc2nc(-c3cccc(Br)c3)cs2)nc2ccccc2c1=O | > 100 µM (inactive)
9 | O=C(C1CCN(c2ncnc3c2nc2n3CCCCC2)CC1)N1CCN(Cc2ccccc2)CC1 | > 100 µM (inactive)
10 | O=C1c2cccc3cccc(c23)N1Cc1ccc(F)cc1 | > 100 µM (inactive)
11 | CCN(Cc1ccccc1)S(=O)(=O)c1ccc(C(=O)N(CCCN(C)C)c2nc3cc4c(cc3s2)OCO4)cc1 | > 100 µM (inactive)
12 | O=C(CCCn1c(=O)c2ccccc2n(Cc2cccc([N+](=O)[O-])c2)c1=O)NC1CCN(Cc2ccccc2)CC1 | > 100 µM (inactive)
13 | Cc1ccc2c(c1)C1CN(C)CCC1N2C(=O)CCCN1C(=O)c2cccc3cccc(c23)C1=O (configuration not stated) | > 100 µM (inactive)
14 | O=C(CCCCCN1C(=O)c2ccccc2C1=O)NCc1ccco1 | > 100 µM (inactive)
15 | CCOc1cccc2sc(N(CCCN(C)C)C(=O)c3ccc(S(=O)(=O)N4CCc5ccccc5C4)cc3)nc12 | > 100 µM (inactive)
16 | CN(C)CCCN(C(=O)c1ccc(S(=O)(=O)N2CCc3ccccc3C2)cc1)c1nc2ccc(F)cc2s1 | > 100 µM (inactive)
17 | CN(C)CCCN(C(=O)c1ccc(C(=O)c2ccccc2)cc1)c1nc2cc3c(cc2s1)OCO3 | > 100 µM (inactive)
18 | O=C(NCCCN1CCN(c2ccccc2)CC1)C1CCCN(c2ncnc3c2nc2n3CCCCC2)C1 (configuration not stated) | > 100 µM (inactive)
19 | COc1ccc(CCNC(=O)CCCCCN2C(=O)c3ccccc3C2=O)cc1 | > 100 µM (inactive)
20 | O=C(Nc1ccc(F)c(Cl)c1)C1CCN(c2ncnc3c2nc2n3CCCCC2)CC1 | > 100 µM (inactive)
21 | Cc1cc(C)cc(OCCNC(=O)CCCCCN2C(=O)c3ccccc3C2=O)c1 | > 100 µM (inactive)
22 | CC(NC(=O)CCCCCN1C(=O)c2ccccc2C1=O)c1nc(-c2ccccc2)no1 (configuration not stated) | > 100 µM (inactive)
23 | CN(C)CCCN(C(=O)c1ccc(S(=O)(=O)N2CCCC2)cc1)c1nc2ccc(Br)cc2s1 | > 100 µM (inactive)
24 | Cc1cc(OCC(O)CN2CCN(CCN3C(=O)c4cccc5cccc(c45)C3=O)CC2)ccc1C(C)C (configuration not stated) | > 100 µM (inactive)

Row | Structure (SMILES) | IC50
25 | O=C(C1CCN(c2ncnc3c2nc2n3CCCCC2)CC1)N1CCN(c2ccccc2)CC1 | > 100 µM (inactive)
26 | COc1ccccc1NC(=S)NC(=O)CCCCCN1C(=O)c2ccccc2C1=O | > 100 µM (inactive)
27 | CC1CC(C)CN(C(=O)C2CCN(c3ncnc4c3nc3n4CCCCC3)CC2)C1 (configuration not stated) | > 100 µM (inactive)
28 | Cc1[nH]c2c(Cl)c(Cl)ccc2c1CCNC(=O)CCCCCN1C(=O)c2ccccc2C1=O | > 100 µM (inactive)
29 | O=C(CCCCCN1C(=O)c2ccccc2C1=O)Nc1ccc(S(=O)(=O)Nc2ncccn2)cc1 | > 100 µM (inactive)
30 | N#Cc1ccccc1Cn1c(=O)n(CCCC(=O)NC2CCN(Cc3ccccc3)CC2)c(=O)c2ccccc21 | > 100 µM (inactive)
31 | COC(=O)C1=C(NC(=O)CCCCCN2C(=O)c3ccccc3C2=O)SC2CCCC12 (configuration not stated) | > 100 µM (inactive)
32 | Cc1cccc(OCC(O)CN2CCN(CCN3C(=O)c4cccc5cccc(c45)C3=O)CC2)c1C (configuration not stated) | > 100 µM (inactive)
33 | O=C(CCCCn1c(=O)c2ccccc2n(Cc2ccccc2F)c1=O)NC1CCN(Cc2ccccc2)CC1 | > 100 µM (inactive)
34 | O=C(CCCCCN1C(=O)c2ccccc2C1=O)NCCc1nc2ccccc2[nH]1 | > 100 µM (inactive)
35 | O=C(CCCn1c(=O)c2ccccc2n(Cc2cccc(F)c2)c1=O)NC1CCN(Cc2ccccc2)CC1 | > 100 µM (inactive)
36 | Cc1c(NC(=O)CCCN2C(=O)c3cccc4cccc(c34)C2=O)c(=O)n(-c2ccccc2)n1C | > 100 µM (inactive)
37 | Cc1cc(C)c2sc(N(CCCN(C)C)C(=O)c3ccc(S(=O)(=O)N(C)Cc4ccccc4)cc3)nc2c1 | > 100 µM (inactive)
38 | Cc1ccc(OCC(O)CN2CCN(CCN3C(=O)c4cccc5cccc(c45)C3=O)CC2)c(C)c1 (configuration not stated) | > 100 µM (inactive)
39 | CN(CCNC(=O)C1CCN(c2ncnc3c2nc2n3CCCCC2)CC1)Cc1ccccc1 | > 100 µM (inactive)
40 | CN(C)CCCN(C(=O)c1ccc(S(=O)(=O)N(C)Cc2ccccc2)cc1)c1nc2cc3c(cc2s1)OCO3 | > 100 µM (inactive)
41 | CCCCN(CC)S(=O)(=O)c1ccc(C(=O)N(CCCN(C)C)c2nc3cc(C)cc(C)c3s2)cc1 | > 100 µM (inactive)
42 | CN(C)CCCN(C(=O)c1ccc(S(=O)(=O)N2CCCCCC2)cc1)c1nc2cc3c(cc2s1)OCCO3 | > 100 µM (inactive)
43 | CN(C)CCCN(C(=O)c1ccc(C(=O)c2ccccc2)cc1)c1nc2cc3c(cc2s1)OCCO3 | > 100 µM (inactive)
44 | CCOc1ccc(NC(=O)Cn2c(=O)n(CCCC(=O)NC3CCN(Cc4ccccc4)CC3)c(=O)c3ccccc32)cc1 | > 100 µM (inactive)
45 | Cc1cc(NC(=O)Cn2c(=O)n(CCCCC(=O)NC3CCN(Cc4ccccc4)CC3)c(=O)c3ccccc32)n[nH]1 | > 100 µM (inactive)
46 | C=CCc1ccccc1OCC(O)CN1CCN(CCN2C(=O)c3cccc4cccc(c34)C2=O)CC1 (configuration not stated) | > 100 µM (inactive)
47 | CN(C)CCCN(C(=O)c1ccc2c(c1)CCCC2)c1nc2ccc(Cl)cc2s1 | > 100 µM (inactive)
